Among the data in PubChem BioAssay AID256 (DTP/NCI, 2004) are T/C values, retold here.

This assay relates to CD2F1 mice, L1210 leukemia ip, survival T/C. Nature of the assay: NCI In Vivo Anticancer Drug Screen. Data for tumor model L1210 Leukemia (intraperitoneal) in CD2F1 (CDF1) mice. As to conditions: endpoint: mean survival time, higher = longer survival. The method in brief:
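Vehicle-treated tumor-bearing mice served as controls (C) for compound-treated mice (T). Reported figure is T divided by C.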

Where [1] appears, read: dose: 50.0 mg/kg/injection, schedule: Q01DX009 (ip), vehicle: saline with Tween-80.
Where [2] appears, read: dose: 100.0 mg/kg/injection, schedule: Q01DX009 (ip), vehicle: saline with Tween-80.
[3] abbreviates: dose: 200.0 mg/kg/injection, schedule: Q01DX009 (ip), vehicle: saline with Tween-80.
Setting [4] is: dose: 100.0 mg/kg/injection, schedule: Q01DX001 (ip), vehicle: saline with Tween-80.
Setting [5] is: dose: 200.0 mg/kg/injection, schedule: Q01DX001 (ip), vehicle: saline with Tween-80.
Setting [6] is: dose: 400.0 mg/kg/injection, schedule: Q01DX001 (ip), vehicle: saline with Tween-80.
The mark [7] stands for this setting: dose: 100.0 mg/kg/injection, schedule: Q04DX003 (ip), vehicle: saline with Tween-80.
The mark [8] stands for this setting: dose: 400.0 mg/kg/injection, schedule: Q01DX009 (ip), vehicle: saline with Tween-80.
The mark [9] stands for this setting: dose: 200.0 mg/kg/injection, schedule: Q04DX003 (ip), vehicle: saline with Tween-80.
The mark [10] stands for this setting: dose: 400.0 mg/kg/injection, schedule: Q04DX003 (ip), vehicle: saline with Tween-80.
Setting [11] is: dose: 12.5 mg/kg/injection, schedule: Q04DX002 (ip), vehicle: saline with Tween-80.
Setting [12] is: dose: 25.0 mg/kg/injection, schedule: Q04DX002 (ip), vehicle: saline with Tween-80.
[13] abbreviates: dose: 50.0 mg/kg/injection, schedule: Q04DX002 (ip), vehicle: saline with Tween-80.

Several values for one entry are separate records, joined by “and”; a condition that tells them apart may be missing. Equal values may be shown once. Inconclusive results and toxic doses are left out.

Regarding `CC(=O)OC(C)Cc1ccccc1` (stereo unspecified), the T/C was 96 % of control under setting [1], 96 % of control under setting [2] and 100 % of control under setting [3].

In the case of `Cc1cc(C(O)CNCCn2cnc3c2c(=O)n(C)c(=O)n3C)ccc1O` (stereo unspecified), the T/C runs as follows: (dose: 12.5 mg/kg/injection, schedule: Q01DX005 (ip), vehicle: water) 103 % of control; (dose: 25.0 mg/kg/injection, schedule: Q01DX005 (ip), vehicle: water) 100 % of control; (dose: 50.0 mg/kg/injection, schedule: Q01DX005 (ip), vehicle: water) 97 % of control; (dose: 100.0 mg/kg/injection, schedule: Q01DX005 (ip), vehicle: water) 100 % of control; (dose: 200.0 mg/kg/injection, schedule: Q01DX005 (ip), vehicle: water) 100 % of control.

On to `CC(=O)c1ccc(N=NNc2ccc(C(C)=O)cc2)cc1`, for which the T/C was 103 % of control under setting [4]; 96 % of control under setting [2]; 95 % of control under setting [5]; 95 % of control under setting [3]; 95 % of control under setting [6].

On to `O=S(=O)(Cl)C(Cl)(Cl)Cl`, for which the T/C (dose: 25.0 mg/kg/injection, schedule: Q01DX009 (ip), vehicle: saline with Tween-80) is 96 % of control; the T/C under setting [1] is 102 % of control; the T/C (dose: 50.0 mg/kg/injection, schedule: Q04DX003 (ip), vehicle: saline with Tween-80) is 97 % of control; the T/C under setting [2] was 95 % of control; the T/C under setting [7] is 94 % of control.

`CCCCOP(=O)(OC)OCCCC`: the T/C (dose: 100.0 mg/kg/injection, schedule: Q04DX002 (ip), vehicle: saline with Tween-80) is 94 % of control and the T/C (dose: 200.0 mg/kg/injection, schedule: Q04DX002 (ip), vehicle: saline with Tween-80) was 102 % of control.

With `CC(C)(C)C(NO)C(O)N1CCCCC1` (stereo unspecified), the T/C (dose: 100.0 mg/kg/injection, schedule: Q01DX001 (ip), vehicle: saline) is 97 % of control and the T/C (dose: 200.0 mg/kg/injection, schedule: Q01DX001 (ip), vehicle: saline) is 95 % of control.

Regarding `COc1cc2c(c(OC)c1OC)-c1ccc(SC)c(=O)cc1[C@@H](NC(C)=O)CC2`, the T/C reads like this: (dose: 0.2 mg/kg/injection, schedule: Q01DX009 (ip), vehicle: Klucel (hydroxypropylcellulose) (HPC)) 86 % of control; (dose: 0.75 mg/kg/injection, schedule: Q04DX002 (ip), vehicle: Klucel (hydroxypropylcellulose) (HPC)) 121 % of control; (dose: 3.0 mg/kg/injection, schedule: Q04DX002 (ip), vehicle: Klucel (hydroxypropylcellulose) (HPC)) 118 % of control and 95 % of control; (dose: 6.0 mg/kg/injection, schedule: Q04DX002 (ip), vehicle: Klucel (hydroxypropylcellulose) (HPC)) 97 % of control.

For the molecule `CC(=O)NC(Cc1ccccc1)C(C)=O` (stereo unspecified), the T/C was 102 % of control under setting [4], 98 % of control under setting [5] and 102 % of control under setting [6].

Turning to `Cc1ccc(S(=O)(=O)N/N=C2\CC3CCC2C3)cc1` (stereo unspecified), the T/C is 90 % of control and 105 % of control under setting [2]; 96 % of control and 100 % of control under setting [3]; 93 % of control and 96 % of control under setting [8].

In the case of `O=C(O)C(O)(Cl)c1cccs1` (stereo unspecified), the T/C runs as follows: under setting [7], 98 % of control; under setting [9], 95 % of control; under setting [10], 95 % of control.

On to `CC(=O)Nc1nc2ncc(/C=C/c3ccccc3)nc2c(=O)[nH]1`, for which the T/C (dose: 75.0 mg/kg/injection, schedule: Q01DX001 (ip), vehicle: other) is 100 % of control and the T/C (dose: 150.0 mg/kg/injection, schedule: Q01DX001 (ip), vehicle: other) is 97 % of control.

With `CCC(CNCC(=O)O)(C(=O)O)C(=O)O`, the T/C by setting is: under setting [11], 104 % of control; under setting [12], 93 % of control; under setting [13], 111 % of control.

For `NC(=O)CNC1=C(N2CC2)C(=O)C(NCC(N)=O)=C(N2CC2)C1=O`, the T/C is, setting by setting: (dose: 5.0 mg/kg/injection, schedule: Q01DX009 (ip), vehicle: saline) 172 % of control; (dose: 10.0 mg/kg/injection, schedule: Q01DX009 (ip), vehicle: saline) 180 % of control and 192 % of control; (dose: 15.0 mg/kg/injection, schedule: Q01DX009 (ip), vehicle: saline) 91 % of control.

In the case of `O=C(O)CCC1C2C=CC(C2)C1C(=O)O` (stereo unspecified), the T/C is, setting by setting: under setting [7], 96 % of control; under setting [9], 96 % of control; under setting [10], 98 % of control.

Consider `CCCCNC(=O)Nc1cccc2c(O)cccc12`, for which the T/C (dose: 50.0 mg/kg/injection, schedule: Q01DX009 (ip), vehicle: DMSO) is 97 % of control.

For `[Br][Pt+2][Br].[NH-]c1cccc(I)c1.[NH-]c1cccc(I)c1`, the T/C is, setting by setting: (dose: 3.12 mg/kg/injection, schedule: Q04DX003 (ip), vehicle: distilled water + Tween-80) 98 % of control; (dose: 6.25 mg/kg/injection, schedule: Q04DX003 (ip), vehicle: distilled water + Tween-80) 101 % of control; (dose: 12.5 mg/kg/injection, schedule: Q04DX003 (ip), vehicle: distilled water + Tween-80) 101 % of control; (dose: 25.0 mg/kg/injection, schedule: Q04DX003 (ip), vehicle: distilled water + Tween-80) 101 % of control; (dose: 50.0 mg/kg/injection, schedule: Q04DX003 (ip), vehicle: distilled water + Tween-80) 101 % of control; (dose: 100.0 mg/kg/injection, schedule: Q04DX003 (ip), vehicle: distilled water + Tween-80) 98 % of control. Further, the T/C (dose: 200.0 mg/kg/injection, schedule: Q04DX003 (ip), vehicle: distilled water + Tween-80) was 114 % of control.

Regarding `O=C1CC(NC(=O)C(F)(F)F)C(=O)O1` (stereo unspecified), the T/C runs as follows: (dose: 100.0 mg/kg/injection, schedule: Q04DX003 (ip), vehicle: saline) 94 % of control; (dose: 200.0 mg/kg/injection, schedule: Q04DX003 (ip), vehicle: saline) 95 % of control; (dose: 400.0 mg/kg/injection, schedule: Q04DX003 (ip), vehicle: saline) 94 % of control.

`C=CCN1/C(=C/C=C\c2sc3ccccc3[n+]2CC=C)Sc2ccccc21`: the T/C by setting is: (dose: 2.0 mg/kg/injection, schedule: Q04DX003 (ip), vehicle: saline) 110 % of control; (dose: 4.0 mg/kg/injection, schedule: Q04DX003 (ip), vehicle: saline) 115 % of control.

Regarding `O=C(O)c1cc2c([nH]1)=C(O)NN(O)C=2`, the T/C runs as follows: under setting [11], 101 % of control; under setting [12], 101 % of control; under setting [13], 111 % of control.

Regarding `O=c1[nH]c(=O)n(C2CC(O)C(CO)O2)cc1-c1ccccc1` (stereo unspecified), the T/C by setting is: (dose: 12.5 mg/kg/injection, schedule: Q01DX005 (ip), vehicle: distilled water + Tween-80) 98 % of control; (dose: 25.0 mg/kg/injection, schedule: Q01DX005 (ip), vehicle: distilled water + Tween-80) 95 % of control; (dose: 50.0 mg/kg/injection, schedule: Q01DX005 (ip), vehicle: distilled water + Tween-80) 98 % of control; (dose: 100.0 mg/kg/injection, schedule: Q01DX005 (ip), vehicle: distilled water + Tween-80) 95 % of control; (dose: 200.0 mg/kg/injection, schedule: Q01DX005 (ip), vehicle: distilled water + Tween-80) 98 % of control.

On to `c1csc(CCc2nc3ccccc3o2)c1`, for which the T/C is 103 % of control under setting [4]; 93 % of control under setting [2]; 98 % of control under setting [5]; 97 % of control under setting [3]; 112 % of control under setting [6]; 93 % of control under setting [8].

Regarding `Cc1ccc(S(=O)(=O)NC(=S)c2ccccc2)cc1`, the T/C under setting [4] is 97 % of control and the T/C under setting [5] is 105 % of control.

Regarding `O=S(=O)(O)SCCN1CCCCC1`, the T/C reads like this: (dose: 12.5 mg/kg/injection, schedule: Q01DX009 (ip), vehicle: saline) 104 % of control; (dose: 12.5 mg/kg/injection, schedule: Q04DX003 (ip), vehicle: saline sonified) 102 % of control; (dose: 25.0 mg/kg/injection, schedule: Q01DX009 (ip), vehicle: saline) 106 % of control; (dose: 25.0 mg/kg/injection, schedule: Q04DX003 (ip), vehicle: saline sonified) 101 % of control; (dose: 50.0 mg/kg/injection, schedule: Q01DX009 (ip), vehicle: saline) 104 % of control; (dose: 50.0 mg/kg/injection, schedule: Q04DX003 (ip), vehicle: saline sonified) 91 % of control.
